Laboratory results as given in patent US6504058B1 (priority 1997, dated 2003).
Read-outs that look alike come from different tables or passages of the source.

Columns and labels:
Phytophthora infestans = format: in vivo, Phytophthora infestans (on tomato seedlings); settings: 200 ppm test suspension sprayed to run-off (equivalent to 500 g/ha) on tomato seedlings; 100 = 100% disease control, 0 = no control; # = significant activity
Puccinia recondita = test: Test B: wheat leaf rust, preventive spray on wheat seedlings, disease rating; format: in vivo, Puccinia recondita (on wheat seedlings); settings: 200 ppm test suspension sprayed to run-off (equivalent to 500 g/ha) on wheat seedlings; 100 = 100% disease control, 0 = no control; # = significant activity
Description: (§1) Test compounds were first dissolved in acetone in an amount equal to 3% of the final volume and then suspended at a concentration of 200 ppm in purified water containing 250 ppm of the surfactant Trem® 014 (polyhydric alcohol esters). The resulting test suspensions were then used in the following test. Spraying these 200 ppm test suspensions to the point of run-off on the test plants is the equivalent of a rate of 500 g/ha.
(§2) The test suspension was sprayed to the point of run-off on wheat seedlings. The following day the seedlings were inoculated with a spore suspension of Puccinia recondita (the causal agent of wheat leaf rust) and incubated in a saturated atmosphere at 20° C. for 24 h, and then moved to a growth chamber at 20° C. for 6 days, after which disease ratings were made.
(§3) Results for Tests A-E are given in Table A. In the table, a rating of 100 indicates 100% disease control and a rating of 0 indicates no disease control (relative to the controls). A dash (-) indicates no test results. ND indicates disease control not determined due to phytotoxicity. # indicates significant activity.

[1] = tested on: Erysiphe graminis f. sp. tritici; test: Test A: wheat powdery mildew, preventive spray on wheat seedlings, disease rating; format: in vivo, Erysiphe graminis f. sp. tritici (on wheat seedlings); settings: 200 ppm test suspension sprayed to run-off (equivalent to 500 g/ha) on wheat seedlings; 100 = 100% disease control, 0 = no control; # = significant activity
Description: as §1
The test suspension was sprayed to the point of run-off on wheat seedlings. The following day the seedlings were inoculated with a spore dust of Erysiphe graminis f. sp. tritici, (the causal agent of wheat powdery mildew) and incubated in a growth chamber at 20° C. for 7 days, after which disease ratings were made.
as §3

Botrytis cinerea = test: Test E: gray mold, preventive spray on cucumber seedlings, disease rating; format: in vivo, Botrytis cinerea (on cucumber seedlings); settings: 200 ppm test suspension sprayed to run-off (equivalent to 500 g/ha) on cucumber seedlings; 100 = 100% disease control, 0 = no control; # = significant activity
Description: as §1
as §2, with “cucumber” for “wheat”, “Botrytis cinerea” for “Puccinia recondita”, “gray mold on many crops)” for “wheat leaf rust)”, “48” for “24”, “and” for “and then”, “5” for “6”
as §3

Pyricularia oryzae = format: in vivo, Pyricularia oryzae (on rice seedlings); settings: 100 = 100% disease control, 0 = no control, # = significant activity
[2] = 200 ppm test suspension sprayed to run-off (equivalent to 500 g/ha) on rice seedlings
[3] = Tested at 40 ppm, rice seedlings

Compound	Test D disease control rating (potato and tomato late blight) (Phytophthora infestans)	Test B disease control rating (wheat leaf rust) (Puccinia recondita)	Test A disease control rating (wheat powdery mildew) [1]	Test E disease control rating (gray mold) (Botrytis cinerea)	Test C disease control rating (rice blast) (Pyricularia oryzae; [2])	Test C disease control rating (rice blast) (Pyricularia oryzae; [3])
CC(COc1ccc(Cl)cc1C#N)NC(=O)C1(C)CC(C)(Cl)C1 (centres unmarked) [compound 41]	85# %	0 (a rating of 0 indicates no disease control (relative to the controls))	0 (a rating of 0 indicates no disease control (relative to the controls))	19%	0 (a rating of 0 indicates no disease control (relative to the controls))	–
CC(COc1cc(F)ccc1F)NC(=O)C1(C)CC(C)(Cl)C1 (centres unmarked) [Compound 30]	0 (a rating of 0 indicates no disease control (relative to the controls))	0 (a rating of 0 indicates no disease control (relative to the controls))	0 (a rating of 0 indicates no disease control (relative to the controls))	94# %	100# (a rating of 100 indicates 100% disease control)	–
CC(NC(=O)C1CC(C)(Cl)C1)C(Oc1cc(F)ccc1F)c1ccccc1 (centres unmarked) [compound 31]	0 (a rating of 0 indicates no disease control (relative to the controls))	0 (a rating of 0 indicates no disease control (relative to the controls))	0 (a rating of 0 indicates no disease control (relative to the controls))	0 (a rating of 0 indicates no disease control (relative to the controls))	90# %	–
CC(CCc1ccccc1)NC(=O)C1(C(F)(F)F)CC(C)(Cl)C1 (mixture of isomers) [compound 2]	–	–	–	–	64# %	–
CC(NC(=O)C1(C)CC(C)(Cl)C1)c1ccc(Cl)cc1Cl (centres unmarked) [compound 20]	0 (a rating of 0 indicates no disease control (relative to the controls))	0 (a rating of 0 indicates no disease control (relative to the controls))	59%	0 (a rating of 0 indicates no disease control (relative to the controls))	100# (a rating of 100 indicates 100% disease control)	–
CC(COc1cc(F)ccc1Cl)NC(=O)C1(C)CC(C)(Cl)C1 (centres unmarked) [compound 50]	0 (a rating of 0 indicates no disease control (relative to the controls))	0 (a rating of 0 indicates no disease control (relative to the controls))	54%	0 (a rating of 0 indicates no disease control (relative to the controls))	94# %	–
CC(NC(=O)C1(C(F)(F)F)CC(C)(Cl)C1)c1ccc(Cl)cc1 (centres unmarked) [Compound 7]	–	–	–	–	100# (a rating of 100 indicates 100% disease control)	–
CC(COc1cc(F)ccc1F)NC(=O)C1(C)CC(C)(Br)C1 (centres unmarked) [compound 58]	0 (a rating of 0 indicates no disease control (relative to the controls))	0 (a rating of 0 indicates no disease control (relative to the controls))	72%	0 (a rating of 0 indicates no disease control (relative to the controls))	97# %	–
CC(NC(=O)C1(C)CC(C)(Cl)C1)c1cccc2ccccc12 (centres unmarked) [compound 21]	0 (a rating of 0 indicates no disease control (relative to the controls))	0 (a rating of 0 indicates no disease control (relative to the controls))	0 (a rating of 0 indicates no disease control (relative to the controls))	0 (a rating of 0 indicates no disease control (relative to the controls))	0 (a rating of 0 indicates no disease control (relative to the controls))	–
CC(NC(=O)C1(C)CC(C)(Br)C1)c1ccc(Br)cc1 (centres unmarked) [compound 18]	0 (a rating of 0 indicates no disease control (relative to the controls))	0 (a rating of 0 indicates no disease control (relative to the controls))	0 (a rating of 0 indicates no disease control (relative to the controls))	0 (a rating of 0 indicates no disease control (relative to the controls))	99# %	–
CC(NC(=O)C1CC(C)(Cl)C1)C(Oc1ccccc1C#N)c1ccccc1 (centres unmarked) [compound 36]	0 (a rating of 0 indicates no disease control (relative to the controls))	0 (a rating of 0 indicates no disease control (relative to the controls))	0 (a rating of 0 indicates no disease control (relative to the controls))	0 (a rating of 0 indicates no disease control (relative to the controls))	0 (a rating of 0 indicates no disease control (relative to the controls))	–
CC(COc1cc(Cl)ccc1F)NC(=O)C1(C)CC(C)(Br)C1 (centres unmarked) [compound 54]	0 (a rating of 0 indicates no disease control (relative to the controls))	0 (a rating of 0 indicates no disease control (relative to the controls))	24%	0 (a rating of 0 indicates no disease control (relative to the controls))	97# %	–
CC(NC(=O)C1CC(C)(Cl)C1)C(Oc1cc(F)ccc1C#N)c1ccccc1 (centres unmarked) [compound 33]	0 (a rating of 0 indicates no disease control (relative to the controls))	0 (a rating of 0 indicates no disease control (relative to the controls))	0 (a rating of 0 indicates no disease control (relative to the controls))	0 (a rating of 0 indicates no disease control (relative to the controls))	52%	–
CC(NC(=O)C1(C)CC(C)(Cl)C1)c1ccc(Cl)cc1Cl (centres unmarked) [compound 71]	100# (a rating of 100 indicates 100% disease control)	0 (a rating of 0 indicates no disease control (relative to the controls))	61%	0 (a rating of 0 indicates no disease control (relative to the controls))	100# (a rating of 100 indicates 100% disease control)	–
CC(NC(=O)C1(C(F)(F)F)CC(C)(Cl)C1)c1ccc(Br)cc1 (centres unmarked) [compound 5]	–	–	–	–	100# (a rating of 100 indicates 100% disease control)	–
CC(NC(=O)C1(Cl)CC(C)(Cl)C1)c1ccc(Br)cc1 (centres unmarked) [compound 16]	–	–	–	–	–	98#* %
CC(NC(=O)C1(C(F)(F)F)CC(C)(Cl)C1)c1ccc(Br)cc1 (centres unmarked) [compound 4]	–	–	–	–	100# (a rating of 100 indicates 100% disease control)	–
CC(COc1ccccc1F)NC(=O)C1(C(F)(F)F)CC(C)(Cl)C1 (centres unmarked) [compound 25]	–	–	–	–	97# %	–
(R)-N-[1-(4-bromophenyl)ethyl]-3,3-difluoro-1-methylcyclobutanecarboxamide [Example 3]	–	–	–	–	82# %	–
CC(NC(=O)C1(C(F)(F)F)CC(C)(Cl)C1)c1ccc(Br)cc1 (mixture of isomers) [compound 1]	–	–	–	–	100# (a rating of 100 indicates 100% disease control)	–
CC(NC(=O)C1(Cl)CC(C)(Cl)C1)c1ccc(Br)cc1 (centres unmarked) [compound 15]	–	–	–	–	–	94#* %
CC(COc1ccccc1F)NC(=O)C1(C(F)(F)F)CC(C)(Cl)C1 (centres unmarked) [compound 26]	–	–	–	–	100# (a rating of 100 indicates 100% disease control)	–
CC(NC(=O)C1(C(F)(F)F)CC(C)(Cl)C1)c1ccc(Cl)cc1 (centres unmarked) [compound 6]	–	–	–	–	98# %	–
